Patent US8753673B2, “Liposome composition for delivery of a therapeutic agent to eyes” (Taiwan Liposome Co. Ltd., priority 2006, dated 2014)

Columns and labels:
[1] = Bio-distribution of radioactivity in normal and CNV eyes of unilateral-CNV rats (γ scintillation counting after perfusion); format: in vivo, Brown Norway (BN) pigmented rats; conditions: for specific radioactivity, CNV eye: CNV (right) eye; for specific radioactivity, CNV eye / specific radioactivity, normal eye: i.v. 250 μCi, means ± s.d.; for specific radioactivity, normal eye: normal (left) eye
Protocol: (§1) In the process of monitoring the behavior of these animals, 2 to 3 out of the 10 rats were unable to walk straight. This abnormal behavior might be related to vision loss of the right eye as the result of laser photocoagulation. There were no other noticeable side effects observed in these rats.
After the SPECT, all rats were sacrificed and perfused with normal saline containing 2 mM EDTA. Animals were dissected to isolate both normal (left) and CNV (right) eyes. The isolated eyes were weighted and radioactivity associated with the eyes was counted by a γ scintillation counter (Cobra II Autogamma, Packed, USA). The uptake of radiotracer in the eyes or other tissues was expressed in counts per minute (cpm) with decay correction and was normalized as percent of injection dose per gram tissue (% ID/g).
The experiment determines the biodistribution of In^111, a small molecular marker and In^111-encapsulated liposome, a lipid nano-particle in an experimental CNV model. Ten unilateral CNV rats were randomly divided into two groups with 4 and 6 rats, respectively. Group 1 received 250 μCi of In^111-DTPA and group 2 received 250 μCi of In^111-encapsulated liposome by intravenous injection.

[2] = Single-photon emission computed tomography (SPECT) imaging of unilateral-CNV rats; format: in vivo, Brown Norway (BN) pigmented rats; conditions: 3, 24 and 48 hours after i.v. 250 μCi
Protocol: as §1
The SPECT imaging was carried out at 3, 24, and 48 hours after the injection of 250 μCi of either In^111-DTPA or In^111 encapsulated liposome. […] The center field of view was 25.4 cm^2 and a single energy centered window was used at […], with a width of 20%. A sequence of scans ([…]×6) was obtained over a period of 15 min. Images were reconstructed in a 128×128 (pixels) format from data with 32 projections distributed over 180° around the rat and a 40 s scan for each projection. The projections of each experiment were processed by reconstruction using filtered back projection, with a low-pass Butterworth filter of order 22.4 and cutoff frequency of 0.43. Each transverse image was reconstructed in a 128×128 array with a pixel size of 1.9×1.9 mm and a zoom of 2.0×.
The experiment determines the biodistribution of In^111, a small molecular marker and In^111-encapsulated liposome, a lipid nano-particle in an experimental CNV model. Ten unilateral CNV rats were randomly divided into two groups with 4 and 6 rats, respectively. […]

[3] = Fluorescein angiography (FAG) and visual observation of eyes in unilateral-CNV rats after i.v. injection; conditions: normal and CNV eyes, visual observation up to 24 hours
Protocol: Brown Norway (BN) pigmented rats, weighing between 200 and 250 gram, were anesthetized with intramuscular injection of 0.15 ml/kg of an equal-volume mixture of 2% lidocaine (Xylocalne; Astra, Astra Södertalje, Sweden) and 50 mg/mL ketamine (Ketalar; Parke-Davis, Morris Plains, N.J.). After anesthetizing, the right pupils were dilated with 1% tropicamide (1% Mydriacyl; Alcon Laboratories, Watford, UK). A small piece of transparent sheet (3M, Minneapolis, Minn.) approximately 3 mm in diameter was attached to the cornea by sodium hyaluronidase (Healon; Pharmacia and Upjohn, Inc., Kalamazoo, Mich.) to serve as a contact lens. Krypton laser (Novus Omni; Coherent, Palo Alto, Calif.) irradiation was delivered through a slit lamp (Carl Zeiss, Oberkochen, Germany). Laser parameters used were as follows: spot size of 100 mm, power of 120 to 160 mW, and exposure duration of 0.1 second. […] CNV was evaluated on day 14 by opthalmoscopy, fundus photography, and conventional fluorescein angiography (FAG) modified from (DiLoreto D, Grover D A, Del Cerro C. (1994) Curr Eye Res. 13, 157-61).
Fluorescein sodium (10%; 0.1 ml/kg; Fluorescite™; Alcon, Fort Worth, Tex.) was injected through the tail vein of the anesthetized rats 14 days after laser photocoagulation. The CNV lesions were recorded with a digital fundus camera (Retinal Angiography; Heidelberg Engineering, Heidelberg, Germany). […]

| Compound | difference in specific radioactivity between the normal and CNV eyes ([1]; 24 and 48 hours post-injection) | specific radioactivity, CNV eye ([1]; 24 hours post injection) [% ID/g] | specific radioactivity, CNV eye ([1]; 48 hours post injection) [% ID/g] | specific radioactivity, normal eye ([1]; 24 hours post injection) [% ID/g] | specific radioactivity, normal eye ([1]; 48 hours post injection) [% ID/g] | accumulation of radioactivity in eyes on SPECT images [2] | visual appearance (colour) of the eyes after i.v. administration [3] |
| --- | --- | --- | --- | --- | --- | --- | --- |
| O=C([O-])CN(CCN(CC(=O)[O-])CC(=O)[O-])CCN(CC(=O)[O-])CC(=O)[O-].[111In+3].[H+].[H+] [In^111-DTPA] | no difference | 0.14 ± 0.09 | 0.13 ± 0.05 | 0.16 ± 0.04 | 0.14 ± 0.06 | did not show any In^111 accumulation in both normal and CNV eyes even at 3 hours | – |
| O=C1OC2(c3ccc(O)cc3Oc3cc(O)ccc32)c2ccccc21 [fluorescein sodium, Fluorescein sodium] | – | – | – | – | – | – | greenish color quickly disappeared within an hour |
